According to BigSolDB 2.1:

CS(=O)(=O)c1ccc([C@@H](O)[C@@H](CO)NC(=O)C(Cl)Cl)cc1
solubility (mole fraction)
Conditions	278.15 K	283.15 K	288.15 K	293.15 K	298.15 K	303.15 K	308.15 K	313.15 K	318.15 K
in 1,4-dioxane	–	–	0.000384	0.000508	0.000728	0.000973	0.0013	0.00173	0.00227
in 2-butanone	0.000139	0.000197	0.000286	0.000379	0.00051	0.000704	0.000952	0.00125	0.00166
in DMF	0.0092	0.012	0.0156	0.0199	0.025	0.0308	0.0379	0.0457	0.0553
in acetone	0.000283	0.000425	0.000585	0.00084	0.00112	0.00149	0.00202	0.00268	0.00352
in acetonitrile	7.96e-05	0.000119	0.000177	0.000259	0.000363	0.000502	0.000716	0.00098	0.00134
in ethanol	0.000102	0.000148	0.000219	0.000309	–	0.000625	0.000837	0.00115	0.00157
in ethyl acetate	6.24e-05	9.09e-05	0.000124	0.000171	0.000246	0.000348	0.000471	0.000643	0.000861
in isopropanol	3.46e-05	5.2e-05	7.13e-05	0.000104	0.000146	0.000201	0.000269	0.000364	0.000493
in methanol	0.00023	0.000345	0.000518	0.000715	0.000993	0.00141	0.00189	0.00259	0.00341
in n-butanol	9.54e-06	1.38e-05	2.08e-05	3.1e-05	4.46e-05	6.39e-05	8.42e-05	0.000123	0.000165
in n-propanol	5.11e-05	7.34e-05	0.000103	0.000147	0.000199	0.000285	0.00038	0.000509	0.000687
in toluene	3.96e-06	6.03e-06	8.89e-06	1.28e-05	1.89e-05	2.7e-05	3.81e-05	5.53e-05	7.6e-05
in water	2.5e-05	3.42e-05	4.96e-05	7.3e-05	9.52e-05	0.000132	0.000187	0.000253	0.000339
